Source: the METLIN SMRT retention time set (Domingo-Almenara et al. 2019)

Assay: gradient 5% acetonitrile 3 min, to 50% in 2 min, to 85% in 15 min, held 3 min, 100 µL/min
Conditions: column: Zorbax Extend-C18 2.1 x 50 mm; eluents: water / acetonitrile, 0.1% formic acid
Outline: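 Standards, all pure, were combined into mixtures of ~100 molecules and run at 100 μL/min on a Zorbax Extend-C18 column (2.1 × 50 mm, 1.8 μm) with water and acetonitrile, each containing 0.1% formic acid. A coupled quadrupole time-of-flight mass spectrometer operated in positive and negative ionization mode. Retention time values come from computationally picked adduct peaks, each inspected manually.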

Compound	RP-LC retention time
O=C1/C(=C/c2cccnc2)Oc2cc(OCc3ccc([N+](=O)[O-])cc3)ccc21	838 s
COC(=O)c1ccc2c(=O)n(-c3ccc(OC)cc3)c(N3CCOCC3)nc2c1	896 s
COc1ccc(-c2noc(C3CC(=O)N(c4ccc(F)cc4)C3)n2)cc1OC (stereo unspecified)	808 s
O=C(Nc1nc(-c2ccc([N+](=O)[O-])cc2)cs1)c1ccc2ncsc2c1	892 s
CC1=C(c2ccc(F)cc2)S(=O)(=O)N=C1N1CCCN(C(=O)Nc2ccccc2)CC1	806 s
CN(CC1CCOC1)C(=O)Nc1cc(F)ccc1F (stereo unspecified)	704 s
O=C(c1ccc(C(F)(F)F)cc1)N1CCC(n2c(-c3ccoc3)nc3cccnc32)C1 (stereo unspecified)	827 s
Cc1nc(C)c(-c2nnc(NC(=O)c3ccno3)o2)s1	603 s
O=C(CC1CCCC1)NC(c1ccccc1)c1nnc(N2CCCCC2)o1 (stereo unspecified)	881 s
Cc1ccc(NC(=O)C2CCN(S(=O)(=O)c3c(C)[nH]c(C)c3C(=O)N3CCCC3)CC2)cc1	723 s
COc1ccc(-c2nnc(-c3ccc(OC)c(S(=O)(=O)N4CCC(C)CC4)c3)o2)cc1OC	990 s
CCn1nccc1-c1cccc(-c2noc(C3CC(=O)N(c4ccc(C)cc4)C3)n2)c1 (stereo unspecified)	1010 s
CCC(C)NC(=O)c1nnc(-c2ccc(S(=O)(=O)N3CCCCC3)cc2)o1 (stereo unspecified)	961 s
COc1ccc(C2CC(=O)N(c3ccc(F)c(F)c3)C(=O)C2)cc1	910 s
CC(C)c1ccc(NC(=O)C2CCN(S(=O)(=O)c3ccc4c(c3)CCCC(=O)N4)CC2)cc1	883 s
Cn1cccc1C(=O)N1CCN(C(=O)c2nnn3c2COC(c2ccc(Cl)cc2)C3)CC1 (stereo unspecified)	839 s
CCCC(=O)Nc1nc(-c2ccc(OC)cc2)c(C)s1	956 s
CC(C)C(NC(=O)C1CCCN(S(=O)(=O)Cc2ccccc2)C1)C(C)C (stereo unspecified)	962 s
CCc1nc2cc(-c3noc(-c4ccnn4C)n3)ccc2o1	971 s
CC(C(=O)Nc1ccc(F)cc1F)C1CCN(C(=O)Nc2ccccc2)CC1 (stereo unspecified)	834 s
CN(C)C1(CC2CC2)CCN(C(=O)c2ccco2)CC1	556 s
Cc1cc(Nc2ccccc2)nn1C(=O)c1ccc([N+](=O)[O-])cc1	987 s
Cc1nc(C)c(C(=O)N2CCC3(CC2)CCC(O)(CN(C)C)CC3)s1	555 s

Compound	RP-LC retention time
COCC(=O)N(C)CCc1noc(-c2ccc(C(=O)N3CCCC3)cc2)n1	626 s
O=c1cc(-c2ccccc2)c2c(O)cc(O)cc2o1	721 s
CCN(Cc1ccccc1)Cc1cc(=O)n2cc(Cl)ccc2n1	616 s
O=C(Nc1ccccc1-c1nc2ccccc2[nH]1)c1cccc([N+](=O)[O-])c1	1040 s
CC1CCN(C(=O)CC2Sc3ncccc3N(C)C2=O)CC1 (stereo unspecified)	726 s
COc1ccc(Cl)cc1NC(=O)C1(c2ccccc2)CCOCC1	1010 s
COc1c(C(=O)NC2CC2)sc2ccc(Cl)cc12	965 s
O=S(=O)(c1cccc(-c2nc(-c3ccccc3)no2)c1)N1CCCC1	1130 s
CCOc1nc2ccccc2nc1N1CCCC(C(=O)Nc2cc(C)c(Cl)cc2OC)C1 (stereo unspecified)	1400 s
Cc1ccc(-c2noc(CN3C(=O)COc4cc(Cl)ccc43)n2)cc1C	1200 s
CCOc1ccc(CNC(=O)CN2CC=C(c3cnn(-c4ccccc4)c3)CC2)cc1	722 s
COCC(=O)Nc1cnc(-c2ccc(C(F)(F)F)cc2)nc1	922 s
COc1ccc(OC)c(NC(=O)c2nc(C)oc2C)c1	935 s
Cc1cc(C)cc(NC(=O)N2CCC(N3CCN(Cc4ccccc4)C(=O)C3=O)CC2)c1	740 s
Cn1cccc1C(=O)C(=O)NCc1ccc2c(c1)OCO2	793 s
O=C(NC1CCCC1)C1CCCN(c2nccn3nc(-c4ccccc4Cl)cc23)C1 (stereo unspecified)	915 s
COc1ccc(-c2cc(=O)c3cc(OC(=O)c4ccncc4)ccc3o2)cc1	832 s
CCCNC(=O)c1c(OCC2CC2)cc(=O)n2c1CCCCC2	683 s
COCc1ncc(C)n1CC1CN(C(=O)c2cccn2C)C1	585 s
NC(=O)Cn1c(Cc2ccccc2Cl)nc2ccccc21	591 s
Cc1nc2cc(-c3noc(-c4ccc(F)c(F)c4)n3)ccc2o1	1100 s
COCc1nc2cccnc2n1C1CCN(C(=O)Nc2cc(OC)c(OC)c(OC)c2)CC1	659 s
COCC(=O)N(CC(=O)N1CCc2sccc2C1COc1ccc(Cl)c(C)c1)C(C)C (stereo unspecified)	967 s

Compound	RP-LC retention time
O=C(NCc1cc(F)cc(F)c1)c1sc2ncccc2c1-n1cccc1	1030 s
O=C1C2C3C=CC(C3)C2C(=O)N1CCN1CCN(Cc2ccc([N+](=O)[O-])cc2)CC1 (stereo unspecified)	563 s
Cc1cc2[nH]c(C(=O)Nc3ccc(Cl)cc3C)c(CN3CCOCC3)c2s1	738 s
COc1cccc(CNC(=O)C2=C3CCCN3c3ccc(Cl)cc3S2(=O)=O)c1	898 s
c1cc(-c2nc(-c3ccnc(N4CCCC4)c3)no2)ccn1	594 s
CCC1CCCCN1C(=O)CC1CCN(S(=O)(=O)c2ccc3c(c2)oc(=O)n3C)CC1 (stereo unspecified)	872 s
O=C(NCc1ccccn1)C1CCN(c2ncnc3c2oc2ccccc23)CC1	593 s
O=C(c1ccc(F)c(F)c1)N1CCN(c2cc(-c3cccs3)[nH]n2)CC1	758 s
CC(C)n1nnc2cc(C(=O)N(C)CC(=O)Nc3cccc(Br)c3)ccc21	805 s
CC(=O)c1ccc(NC(=O)C2Oc3ccccc3NC2=O)cc1 (stereo unspecified)	683 s
O=C(COc1ccc(F)cc1)Nc1ccc2c(c1)CCC(=O)N2	705 s
CCCCN(CC)CCCNC(=O)C1CCCN(c2ncnc3c2nc2n3CCCCC2)C1 (stereo unspecified)	611 s
COc1ccc(C2c3sc(=O)[nH]c3SC3C(=O)N(CC(=O)O)C(=O)C32)cc1 (stereo unspecified)	632 s
O=C(c1ccc2nnc(-c3ccc(Cl)cc3)n2c1)N1CCN(c2ccccn2)CC1	650 s
COc1ccc(C(C)NC(=O)Cn2nc3cc(-c4ccccc4)nc(C)n3c2=O)cc1 (stereo unspecified)	908 s
Cc1cccc(CN2CCN(CC(=O)NCc3ccc4c(c3)OCO4)C(=O)C2=O)c1	723 s
CC(=O)N1CCCSc2ccc(S(=O)(=O)N3CCCC3)cc21	774 s
CC(C)CC(=O)N1CCC2(CC1)C(=O)N(C)c1ccccc12	766 s
O=C(c1ccccc1OCC1CCCNC1)N1CCCC1 (stereo unspecified)	596 s
CCCN(C)c1nccnc1OC1CCN(C(=O)CC)C1 (stereo unspecified)	694 s
Cc1cccc(NC(=O)N2CCCC(C)(C(=O)NCc3ccccc3C)C2)c1 (stereo unspecified)	959 s
CNC(C)Cc1ccccc1OC (stereo unspecified)	646 s
CCCCNC(=O)c1c(O)c2cccnc2n(-c2cccc(OC)c2)c1=O	1140 s

Compound	RP-LC retention time
CCc1ccccc1S(=O)(=O)N(C)CC1CCOC1 (stereo unspecified)	850 s
Cc1cccc(-c2noc(CN3C(=O)COc4cc(Cl)ccc43)n2)c1	1160 s
CCCNC(=O)C1Cn2cccc2C(=O)N1 (stereo unspecified)	581 s
CN1C(=O)Cc2cc(S(=O)(=O)NCc3ccc4c(c3)CCN4C(=O)c3ccccc3)ccc21	771 s
Cc1ccccc1-c1nc2cnccn2c1NCCC(=O)NC1CC1	568 s
Cc1ccc2cc(CCC(=O)NCCCN(C)C)c(=O)[nH]c2c1	577 s
O=C(NCCc1ccccc1)N1[C@H]2CC[C@@H]1c1cncnc1C2	642 s
Cc1nn(-c2nc(CC(=O)Nc3nc(-c4ccccc4)cs3)cs2)c(C)c1Cc1ccccc1	1380 s
COc1ccc(Cl)cc1S(=O)(=O)N1CCC2(CC1)c1nccn1CCN2C	646 s
Cc1ccc(-n2c(=O)n(C)c(=O)c3cc(C(=O)Nc4ccc5c(c4)OCCO5)cnc32)cc1	892 s
Cc1ccc(-c2csc(NC(=O)CSc3nc4c(cc3C#N)CCC4)n2)cc1	1210 s
CCOC(=O)c1c(C)c(CCC(=O)NCCN2CCOCC2)n(C)c1C	597 s
CCOc1ccccc1NC(=O)NCCn1c(C(F)(F)F)nc2cccnc21	799 s
Cc1ccc(NC(=O)CSc2ccc(N3CCCC(C(=O)NC4CC4)C3)nn2)cc1 (stereo unspecified)	659 s
CN1C(=O)CCCCC1C(=O)N1CCc2ccccc21 (stereo unspecified)	721 s
Cc1ccc(CNC(=O)N2CC=C(c3cn(C(C)C)c4ncccc34)CC2)cc1	958 s
COc1ccc(S(=O)(=O)Nc2cc(N3CCCS3(=O)=O)ccc2OC)cc1F	721 s
CC(C(=O)Nc1ccc2c(c1)OCCO2)n1cnc2nc3c(cc2c1=O)CCCC3 (stereo unspecified)	712 s
CCCn1c(=O)c(N2CCN(C(=O)CC3CCCC3)CC2)nc2ccccc21	1130 s
CCc1cccc(NC(=O)C2CCN(S(=O)(=O)c3ccc4c(c3)sc(=O)n4C(C)C)CC2)c1	953 s
Cc1cccc(S(=O)(=O)Nc2cc(-c3cn4ccc(C)cc4n3)ccc2C)c1	704 s
O=C(c1ccc(CS(=O)(=O)c2c(Cl)cccc2Cl)o1)N1CCN(c2ccccn2)CC1	634 s
